Data published in patent US20200071316A1, “ACTIVATORS OF THE RETINOIC ACID INDUCIBLE GENE "RIG-I" PATHWAY AND METHODS OF USE THEREOF” (Kineta Immuno-Oncology LLC, priority 2018, published 2020).
Marks after values point to notes of the source that are not given here.

What was measured:
[1] = system: RIG-I deficient CT26 RIG-1−/− cells; test: CXCL10 secretion in RIG-I deficient CT26 RIG-1−/− cells (ELISA); format: cell-based, murine; settings: 24 h
Protocol: (§1) The CT26 murine colon carcinoma cell line (ATCC) was used to evaluate the induction of CXCL10 secretion. CXCL10 is an important chemokine in tumor immune biology that recruits tumor-specific T cells to the tumor. To confirm that compound-mediated CXCL10 production was RIG-I specific, RIG-I deficient CT2-RIG-1−/− cells were generated by Kineta using CRISPR technology.
(§2) CT26 cells were seeded at a density of 1×10^4 cells per well on a 96-well tissue culture plate in 100 μL of cell culture and cells were incubated at 37° C. and 5% CO2 for 24 hr. Next, CT26 cells were treated with compounds at the indicated concentrations. CXCL10 was quantified by ELISA from supernatants taken 24 h after compound stimulation by use of the CXCL10 DuoSet ELISA kit (Cat # DY466, R&D, Minneapolis, Minn., USA) according to the manufacturer's instructions.
(§3) CXCL10 secretion by CT26 cells in response to compounds (in an amount of 5 to 20 μM) of the present disclosure is shown in Table 8. The compound-induced CXCL10 production was RIG-I dependent, since none of the compounds mediated CXCL10 secretion in RIG-I deficient CT26 RIG-1−/− cells. The compounds (10 μM, *20 μM, **5 μM) are indicated in the table as follows: “−” indicates less than 100 pg/mL; “+” indicates 100-199 pg/mL; “++” indicates 200-399 pg/mL; “+++” indicates 400-799 pg/mL; “++++” indicates 800 to 1599 pg/mL; “+++++” indicates greater than or equal to 1600 pg/ml.

[2] = system: THP1-Lucia ISG IRF3 −/− cells; test: IRF3-deficient THP1-Lucia ISG IRF3 −/− reporter assay (counter-screen); format: cell-based; settings: Homo sapiens, 18 h after stimulation, read-out: THP1 ISG IRF3 −/−: fold increase of luciferase activity over background; for fold induction at 10 µM: 10 μM compound; for fold induction at 5 µM: 5 μM compound (**)
Protocol: (§4) The promotor was comprised of five IFN-stimulated response elements (ISRE) fused to an ISG54 minimal promotor which is unresponsive to NF-kB or AP-1 pathways. […] The IRF3-deficient THP1-Lucia™ ISG IRF3 −/− reporter cell line was generated by CRISPR technology from the parent THP1-Lucia™ ISG reporter cell line.
(§5) 5 THP1-Lucia™ ISG cells and IRF3-deficient THP1-Lucia™ ISG IRF3 −/− cells were differentiated with PMA (100 ng/ml) and stimulated with compounds at the indicated concentrations (5 to 20 μM), positive control, or not treated (background). Luciferase secretion was quantified using the QUANTI-Luc luciferase assay system (InvivoGen) 18 h after stimulation. Data are shown as fold increase luciferase activity over background in Table 7 and represent the IRF3-dependent ISG54 promotor activity by the THP1-Lucia™ ISG cells in response to compounds. […] The fold increase of compounds (10 μM, *20 μM, **5 μM) induced IRF3 dependent luciferase activity is indicated as follows: “−” indicates less than 2.4 fold increase; “+” indicates a 2.4-4.9 fold increase; “++” indicates a 5-9.9 fold increase; “+++” indicates a 10-19 fold increase; “++++” indicates a 20-39 fold increase; “+++++” indicates greater than or equal to 40 fold increase.

[3] = system: CXCL10 secretion by CT26 cells; test: RIG-I dependent CXCL10 secretion by CT26 colon carcinoma cells (ELISA); format: cell-based, murine; settings: 24 h
Protocol: as §1, §2, §3

[4] = system: IRF3 signaling pathway (IRF-inducible ISG54 promotor) in THP1-Lucia ISG cells; test: THP1-Lucia ISG reporter assay: induction of IRF3-dependent luciferase activity; format: cell-based; settings: Homo sapiens, PMA-differentiated cells, 18 h after stimulation, read-out: THP1 ISG: fold increase of IRF3-dependent luciferase activity over background; for fold induction at 10 µM: 10 μM compound; for fold induction at 5 µM: 5 μM compound (**)
Protocol: The compounds were evaluated in the THP1-Lucia™ ISG (interferon stimulated genes) reporter assay to determine if the compounds activate the IRF3 signaling pathway. The THP1-Lucia™ cells (InvivoGen) express the secreted luciferase (Lucia) reporter gene under the control of an IRF-inducible promotor. The reporter cell line was developed from human monocytic leukemia THP-1 cells.
as §4, §5

Row | SMILES | CXCL10 secretion by CT26 RIG-I −/− cells ([1]; 10 μM compound) | fold induction at 10 µM [2] | CXCL10 secretion by CT26 cells ([3]; 10 μM compound) | fold induction at 10 µM [4] | CXCL10 secretion by CT26 RIG-I −/− cells ([1]; 5 μM compound (**)) | CXCL10 secretion by CT26 cells ([3]; 5 μM compound (**)) | fold induction at 20 µM ([2]; 20 μM compound (*)) | fold induction at 20 µM ([4]; 20 μM compound (*)) | fold induction at 5 µM [2] | fold induction at 5 µM [4]
1 | O=C(Nc1nc2ccc(SC(F)F)cc2s1)c1cc2ccccc2cc1OCCCCN1CCOCC1 [Example 49, N-{6-[(difluoromethyl)sulfanyl]-1,3-benzothiazol-2-yl}-3-[4-(morpholin-4-yl)butoxy]naphthalene-2-carboxamide] | − (“−” indicates less than 100 pg/mL) | < 2.4 | +++ (“+++” indicates 400-799 pg/mL) | 20 to 39 | – | – | – | – | – | –
2 | O=C(Nc1nc2ccc(NC(=O)C3CCCCC3)cc2s1)c1ccc2ccccc2c1 [Example 8, N-(6-cyclohexaneamido-1,3-benzothiazol-2-yl)naphthalene-2-carboxamide] | − (“−” indicates less than 100 pg/mL) | < 2.4 | ++++ (“++++” indicates 800 to 1599 pg/mL) | 10 to 19 | – | – | – | – | – | –
3 | O=C(Nc1nc2ccc(SC(F)F)cc2s1)c1ccc2ccccc2c1 [Example 4, N-{6-[(difluoromethyl)sulfanyl]-1,3-benzothiazol-2-yl}naphthalene-2-carboxamide] | − (“−” indicates less than 100 pg/mL) | < 2.4 | ++++ (“++++” indicates 800 to 1599 pg/mL) | ≥ 40 | – | – | – | – | – | –
4 | O=C(Nc1nc2ccc([N+](=O)[O-])cc2s1)c1cc2ccccc2cc1OCCN1CCOCC1 [Example 20, 3-[2-(morpholin-4-yl)ethoxy]-N-(6-nitro-1,3-benzothiazol-2-yl)naphthalene-2-carboxamide] | – | < 2.4 | – | 10 to 19 | −** (“−” indicates less than 100 pg/mL) | +** (“+” indicates 100-199 pg/mL) | – | – | – | –
5 | CS(=O)(=O)Nc1ccc2nc(NC(=O)c3cc4ccccc4cc3OCCCCN3CCOCC3)sc2c1 [Example 27, N-(6-methanesulfonamido-1,3-benzothiazol-2-yl)-3-[4-(morpholin-4-yl)butoxy]naphthalene-2-carboxamide] | − (“−” indicates less than 100 pg/mL) | < 2.4 | +++ (“+++” indicates 400-799 pg/mL) | 20 to 39 | – | – | – | – | – | –
6 | O=C(Nc1nc2ccc(S(=O)(=O)N3CCCC3)cc2s1)c1cc2ccccc2cc1OCCCCN1CCOCC1 [Example 31, 3-[4-(morpholin-4-yl)butoxy]-N-[6-(pyrrolidine-1-sulfonyl)-1,3-benzothiazol-2-yl]naphthalene-2-carboxamide] | − (“−” indicates less than 100 pg/mL) | < 2.4 | +++++ (“+++++” indicates greater than or equal to 1600 pg/ml) | 10 to 19 | – | – | – | – | – | –
7 | O=C(Nc1nc2cccc(C(F)(F)F)c2s1)c1ccc2ccccc2c1 [Example 11, N-[7-(trifluoromethyl)-1,3-benzothiazol-2-yl]naphthalene-2-carboxamide] | − (“−” indicates less than 100 pg/mL) | < 2.4 | ++ (“++” indicates 200-399 pg/mL) | 10 to 19 | – | – | – | – | – | –
8 | O=C(Nc1nc2ccc(S(=O)(=O)N3CCCC3)cc2s1)c1cc2c(cc1OCCN1CCOCC1)OCO2 [Example 40, 6-[2-(morpholin-4-yl)ethoxy]-N-[6-(pyrrolidine-1-sulfonyl)-1,3-benzothiazol-2-yl]-2H-1,3-benzodioxole-5-carboxamide] | – | – | – | – | −** (“−” indicates less than 100 pg/mL) | ++** (“++” indicates 200-399 pg/mL) | < 2.4 | 2.4 to 4.9 | – | –
9 | CS(=O)(=O)c1ccc2nc(NC(=O)c3cc4ccccc4cc3OCCCCN3CCOCC3)sc2c1 [Example 45, N-(6-methanesulfonyl-1,3-benzothiazol-2-yl)-3-[4-(morpholin-4-yl)butoxy]naphthalene-2-carboxamide] | − (“−” indicates less than 100 pg/mL) | < 2.4 | ++++ (“++++” indicates 800 to 1599 pg/mL) | 5 to 9.9 | – | – | – | – | – | –
10 | O=C(Nc1nc2ccc(S(=O)(=O)N3CCC3)cc2s1)c1ccc(-c2ccccc2)cc1OCCCCN1CCOCC1 [Example 59] | − (“−” indicates less than 100 pg/mL) | < 2.4 | +++ (“+++” indicates 400-799 pg/mL) | 10 to 19 | – | – | – | – | – | –
11 | O=C(Nc1nc2ccc(S(=O)(=O)N3CCC3)cc2s1)c1ccc(-c2ccccc2)cc1OCCN1CCOCC1 [Example 60, N-[6-(azetidine-1-sulfonyl)-1,3-benzothiazol-2-yl]-3-[2-(morpholin-4-yl)ethoxy]-[1,1′-biphenyl]-4-carboxamide] | − (“−” indicates less than 100 pg/mL) | < 2.4 | ++++ (“++++” indicates 800 to 1599 pg/mL) | 20 to 39 | – | – | – | – | – | –
12 | O=C(Nc1nc2ccc(S(=O)(=O)N3CCC3)cc2s1)c1cc2ccsc2cc1OCCN1CCOCC1 [Example 62, N-[6-(azetidine-1-sulfonyl)-1,3-benzothiazol-2-yl]-6-[2-(morpholin-4-yl)ethoxy]-1-benzothiophene-5-carboxamide] | − (“−” indicates less than 100 pg/mL) | < 2.4 | ++++ (“++++” indicates 800 to 1599 pg/mL) | 20 to 39 | – | – | – | – | – | –
13 | O=C(Nc1nc2ccc(NC(=O)C3CCCCC3)cc2s1)c1cc2ccccc2cc1OCCCCN1CCOCC1 [Example 22, N-(6-cyclohexaneamido-1,3-benzothiazol-2-yl)-3-[4-(morpholin-4-yl)butoxy]naphthalene-2-carboxamide] | – | – | – | – | −** (“−” indicates less than 100 pg/mL) | +** (“+” indicates 100-199 pg/mL) | – | – | < 2.4 | 2.4 to 4.9
14 | O=C(Nc1nc2ccc([N+](=O)[O-])cc2s1)c1cc2ccccc2cc1OCCCCN1CCOCC1 [Example 23, 3-[4-(morpholin-4-yl)butoxy]-N-(6-nitro-1,3-benzothiazol-2-yl)naphthalene-2-carboxamide] | – | – | – | – | −** (“−” indicates less than 100 pg/mL) | ++++** (“++++” indicates 800 to 1599 pg/mL) | – | – | < 2.4 | 5 to 9.9
15 | O=C(Nc1nc2ccc(C(=O)Nc3c(Cl)cccc3Cl)cc2s1)c1ccc2ccccc2c1 [Example 13, N-(2,6-dichlorophenyl)-2-(naphthalene-2-amido)-1,3-benzothiazole-6-carboxaraide] | − (“−” indicates less than 100 pg/mL) | < 2.4 | +++++ (“+++++” indicates greater than or equal to 1600 pg/ml) | 20 to 39 | – | – | – | – | – | –
